From patent US11414398B2, “Selective organic cation transporters inhibitors for the treatment of depressive disorders” (priority 2017, dated 2022)
Entries after “also recorded” stand apart in the source; their conditions may differ.

Key:
[1] = test system: autophagy and proteasome pathways in the brain; test: Toxicity: cell death pathways in the brain, Western blots; conditions: mouse, in vivo
Procedure: (§1) Corticosterone-induced depression. To induce a chronic depression-like state, individually housed mice were administered corticosterone ([…]; Sigma-Aldrich) dissolved in 0.45% (wt/vol) hydroxypropyl-b-cyclodextrin (Sigma-Aldrich) as in (Bacq et al., Mol. Psychiatry, 2012, 17, 926-939). […] The mice were tested successively for coat sate, sucrose consumption, elevated O-maze, object location test and social interaction, before antidepressant treatment, and after 10 days and 3 weeks of treatment. The experimental scheme is represented on FIG. 1A.
Cell death pathways in the brain—Western blots. […] Samples were homogenized by sonication in 2 vol of ice-cold phosphate-buffered saline containing 1% Triton X-100, protease inhibitors (Complete Protease Inhibitor Cocktail, Roche Diagnostics, Basel, Switzerland) and phosphatase inhibitors (Phosphatase Inhibitor Cocktail 3; Sigma-Aldrich). Protein concentrations were determined by Bradford's method. Proteins samples (15 μg) suspended in NuPage LDS sample buffer (Invitrogen, Carlsbad, Calif., USA) were separated by Bis-Tris sodium dodecyl sulfate polyacrylamide gel electrophoresis (10% gels) and transferred onto nitrocellulose membranes (Invitrogen). Transfer efficacy was controlled by Ponceau S staining. Unspecific binding sites were blocked in Tris-buffered saline containing 0.1% Tween-20 and 5% nonfat milk and membranes were immunoprobed with antibodies against β-actin ( 1/2500) and β-catenin ( 1/300) from Sigma-Aldrich or LC3B ( 1/5000) from Abcam. Membranes were incubated with infrared-labeled secondary antibodies (IRDye 700DX and IRDye 800CW; 1/5000; Rockland, Gilbertsvillle, Pa., USA). Immunoblotting was quantified with the Odyssey Infrared Imaging System and Application Software version 3.0 (LI-COR Biosciences, Lincoln, Nebr., USA).

[2] = test system: corticosterone-induced depression model; test: Sucrose preference test, corticosterone-induced depression; assay type: in vivo, mice; conditions: i.p. daily: I-1 0.1 mg/kg/day, fluoxetine 15 mg/kg/day or both
Procedure: Corticosterone-induced depression. […] The experimental scheme is represented on FIG. 1A. Sucrose preference test. Singled-house mice were first habituated for 48 h to drink water from two bottles.

[3] = test system: corticosterone-induced depression model; test: Open-field test, corticosterone-induced depression; assay type: in vivo, mice
Procedure: as §1
Open-field test. The open field consisted of a white Plexiglas field (100×100×30 cm) with the center brightly illuminated (500 lux). General locomotor activity in the center and periphery of the open field were scored for 9 min. The time and number of entries in the center zone (60×60 cm) were evaluated as an index of anxiety-related response (FIG. 2B).

[4] = Metabolic conversion in microsomal fraction; assay type: in vitro ADME; conditions: 100 μM, rat liver microsomes 1 mg protein/mL, NADPH generating system, 37° C.
Procedure: Method. […] The reactions were stopped by adding one-half volume of CH3CN containing 8% CH3COOH and the proteins were removed by centrifugation at 13000 g. […] B=CH3CN/HCOOH (999:1)) at 200 μL/min. Mass spectra were obtained by electrospray ionization (ESI) in positive ionization mode detection under the following conditions: source parameters, […], 15; auxiliary gas, 5; spray voltage, 3.2 kV; capillary temperature, 275° C.; and m/z range for MS recorded generally between 150 and 900. For all products, the indicated parent ions corresponded to [M+H]^+.

[5] = test system: social defeat model; test: Social defeat model, social interaction test; assay type: in vivo, mice; conditions: after 3 weeks of treatment; fluoxetine 17 mg/kg, compound (I-1) 0.1 mg/kg as printed
Procedure: (§2) Social defeat model. For social defeat, 8-week-old C57Bl/6J mice were submitted to social defeat stress for 10 consecutive days as described (Berton et al., Science, 2006, 311(5762), 864-8). […] The experimental scheme is represented on FIG. 1H. Social interaction test. The social interaction test was performed in a white open-field (42×42 cm) containing an empty wire mesh cage (10×6.5 cm) located at an extremity of the field in a low luminosity environment (25 lux). Each test mouse was allowed to explore the openfield for two consecutive sessions of 2.5 min. During the second session, an unfamiliar mouse was introduced into the cage. Between the two sessions, the test mouse was placed back into its home cage for approximately one minute. The time spent by the test mouse in the interaction zone, defined as an 8-cm-wide region surrounding the mesh cage, was measured in both sessions by video tracking (Viewpoint, Lyon, France) (FIGS. 1G and 1I).

[6] = Effect on weight, corticosterone-induced depression; assay type: in vivo, mice; conditions: weight measured daily; I-1 0.1 mg/kg/day, fluoxetine 15 mg/kg/day or both, i.p.
Procedure: Corticosterone-induced depression. […] The experimental scheme is represented on FIG. 1A. Effect on weight. The weight of tested mice was measured daily in the morning (FIG. 2D).

[7] = mouse, in vivo
Procedure: as §1
Blood parameter evaluation. Blood was collected in lithium heparin after the 3 weeks of treatment. Hemograms were performed with a Siemens ADVIAZ 120 apparatus. For biochemistry, blood was centrifuged at 2000 g for 10 min at +4° C. and supernatant was analyzed with a COBAS 6000 (Roche) apparatus.

[8] = Forced swim test, acute administration; assay type: in vivo
[9] = Acute administration: locomotor activity and anxiety level; assay type: in vivo
[10] = test system: corticosterone-induced depression model; test: Coat state, corticosterone-induced depression; assay type: in vivo, mice; conditions: both time points; i.p. daily: I-1 0.1 mg/kg/day, fluoxetine 15 mg/kg/day or both
Procedure: Corticosterone-induced depression. […] The experimental scheme is represented on FIG. 1A. Coat state. The coat state of each animal was assessed weekly as a measure of motivation toward self-care. It was evaluated as the sum of the score of different parts of the body, ranging between 0 for a well-groomed coat and 1 for an unkempt coat for head, neck, dorsal/ventral coat, tail and forepaws/hindpaws (FIG. 1B).

[11] = test system: corticosterone-induced depression model; test: Elevated O-maze test, corticosterone-induced depression; assay type: in vivo, mice; conditions: after 21 days; i.p. daily: I-1 0.1 mg/kg/day, fluoxetine 15 mg/kg/day or both
Procedure: Corticosterone-induced depression. […] The experimental scheme is represented on FIG. 1A. Elevated O-maze test. The elevated O-maze consisted of an annular runway positioned 40 cm above the floor and divided into two opposing 90° closed sectors and two 90° open sectors. The mice were individually placed in the closed sector and their behavior recorded over a 5-min period. The time spent in each sector and the number of sector entries (a sector entry was defined as all four of the paws being placed in a sector) were determined by video tracking (Viewpoint, Lyon, France) (FIGS. 1D and 1E).

[12] = test system: corticosterone-induced depression model; test: Social interaction test, corticosterone-induced depression; assay type: in vivo, mice; conditions: 21 days of treatment; compared to corticosterone
Procedure: as §2, with “Corticosterone-induced depression.” for “Social defeat model. For social defeat, 8-week-old C57Bl/6J mice were submitted to social defeat stress for 10 consecutive days as described (Berton et al., Science, 2006, 311(5762), 864-8).”, “1A.” for “1H.”

[13] = compared to fluoxetine-treated and fluoxetine plus compound (I-1) treated groups

## COc1ccc2c(c1)CC/C(=C/c1cc[n+](C(C)C)c3ccccc13)N2C(C)C [Compound I-1, (Z)-1-isopropyl-4-((1-isopropyl-6-methoxy-3,4-dihydroquinolin-2(1H)-ylidene)methyl)quinolin-1-ium Iodide]
[1]
  LC3II/LC3I ratios: comparable LC3II/LC3I ratios
  autophagy and proteasome pathways in the brain: does not alter autophagy and proteasome pathways in the brain
  β-catenin levels: comparable
[2]; 11 days of treatment
  sucrose preference: significantly increased sucrose preference at 11 days
[2]; 21 days of treatment
  sucrose preference: significantly increased sucrose preference at 21 days
[3]; compared to corticosterone, I-1 0.1 mg/kg/day, fluoxetine 15 mg/kg/day or both, i.p.
  locomotor activity at the periphery of the open field: significant effect; also recorded: restored normal locomotor activity
[3]; [13]
  locomotor activity in the center of the open field: significant increase
  time in the center of the open field: significant increase
[4]
  metabolisation on incubation with microsomes: led to the metabolisation
[5]
  reversal of social aversion (time in interaction zone with target): not by compound (I-1)
[6]
  effect on weight: no significant effect; also recorded: did not decrease weight
[7]
  ALP: 53.3 ± 2.2 U/L
  ALT: 49.5 ± 4.2 U/L
  AST: 164.8 ± 6.2 U/L
  Creatinine: 0.43 ± 0.06 mg/dL
  Hematies: 8.96 ± 0.5 T/L
  Leucocytes: 2.89 ± 0.4 g/L
  Platelets: 254.1 ± 56.5
  Total bilirubin: 0.12 ± 0.01 mg/dL
  Urea: 61.7 ± 1.9 mg/dL
  hepatotoxicity compared with fluoxetine: less hepatotoxicity
[8]
  immobility time in the forced swim test: moderate but reproducible lowering (antidepressant-like) action
[9]
  anxiety level: no effect
  locomotor activity: no effect
[10]
  coat state: improved coat state at both time points
[11]
  latency to enter the open zone of the elevated O-maze: decreased the latency to enter this zone
  time in the open zone of the elevated O-maze: increased the time in the open zone
[12]
  interaction time in social interaction test: significant effects on interaction time
